Experimental findings from PMC10714390, “Quinoline Compounds Targeting the c-Ring of ATP Synthase Inhibit Drug-Resistant Pseudomonas aeruginosa” (ACS Infectious Diseases, 2023) are described below.

The structures appear in SMILES notation. pIC50: −log10 of the molar value. Several values for one entry are separate records, joined by “and”; a condition that tells them apart may be missing. Identical values can stand only once. Bounds are passed on as bounds.

Data set [1] has as its system drug-resistant P. aeruginosa BAA 2108. Description: Antimicrobial susceptibility (broth microdilution), BAA 2108. It counts as cell-based, Pseudomonas aeruginosa. Particulars: for MIC: Pseudomonas aeruginosa, BAA2108, read-out: antibacterial activity (MIC) BAA 2108; for antibacterial activity in words, BAA 2108: summary of Table 1. Here is the method:
(§1) The following are general steps, unless otherwise noted. All steps were completed using aseptic techniques. All media and glassware were sterilized via an autoclave at 121 °C for 60 min. All agitation occurred at 160 rpm in a temperature-controlled console shaker (Excella E25) at 37 °C. Full-strength tryptic soy broth (TSB) was made by dissolving 30 g of BD Bacto TSB powder in 1 L of deionized water. Purchased and acquired bacterial strains used were E. coli (ATCC 25922), P. aeruginosa (ATCC 9027), drug-resistant P. aeruginosa from ATCC Panel MP-23 (BAA 2108, BAA 2109, BAA 2110), and P. aeruginosa efflux knockout GKCW120 (PΔ6)[6] provided by Zgurskaya and co-workers at the University of Oklahoma.
(§2) Susceptibility testing was performed in biological triplicate using the broth microdilution method as outlined by the Clinical and Laboratory Standards Institute. […] Briefly, to each well, 1 μL of compound in DMSO, 89 μL of TSB, and 10 μL of bacterial inoculum, grown from a single colony in 10 mL of TSB for 4–6 h, were added. After incubation for 12–15 h at 37 °C, absorbance at 590 nm was read on a Biotek Synergy HTX Multimode plate reader. Data were processed by background subtracting the media absorbance and then normalizing the data to full bacterial growth with the vehicle only. MIC is defined as the lowest concentration of antibiotic or antibiotic/adjuvant combination that achieves ≥85% growth inhibition, which corresponds to no visible growth.
Background: Dilution methods test growth across graded concentrations, often in twofold steps.

In data set [2] the test system is drug-resistant P. aeruginosa BAA 2110. The data set is described as follows: Antimicrobial susceptibility (broth microdilution), BAA 2110. It counts as cell-based, Pseudomonas aeruginosa. Particulars: for MIC: Pseudomonas aeruginosa, BAA2110, read-out: antibacterial activity (MIC) BAA 2110. Here is the method: as §1, §2
The next data set addresses T1, PA ATP synthase (Pseudomonas aeruginosa, UniProt Q9HT15).
T1 construct: Inverted membrane vesicles were prepared from PA 9027; endogenous in cells; host or cells: Pseudomonas aeruginosa ATCC 9027, inverted membrane vesicles
The data set is described as follows: NADH-driven ATP synthesis inhibition, PA inverted membrane vesicles. The data set is classed as biochemical. Particulars: for Hill coefficient of dose response fit, PA vesicles: inhibition of ATP synthesis activity; for pIC50: inverted membrane vesicles from PA 9027, NADH-driven, end point luminescence assay. The method, then: (§3) Vesicles were prepared from P. aeruginosa and transformed E. coli cells as previously described.[22] Briefly, cells were grown in LB liquid medium at 37 °C with shaking and harvested by centrifugation after 7 h of growth. Cultures of transformant E. coli included 100 μg/mL ampicillin. Cells were disrupted in TMG buffer (50 mM Tris-HCl, MgCl2, 10% (v/v) glycerol, pH 7.5) using an Avestin B15 homogenizer at 19,000 psi. After unbroken cells and debris were cleared by centrifugation at 9000g, inverted vesicles were collected by centrifugation at 193,000g, resuspended in TMG buffer, and stored at −80 °C. Protein concentrations were determined using a modified Lowry assay.[25]
(§4) Continuous ATP synthesis activity of inverted membrane vesicles was measured using a luciferin/luciferase luminescence assay as previously described.[22] Inhibition of ATP synthesis activity by test compounds was determined using an end point assay essentially as previously described.[18],[26] In this assay, the synthesis reaction was initiated by 2.5 mM NADH, proceeded for 10 min, and was stopped with 1% trichloroacetic acid, 2 mM CCCP, and 10 mM EDTA. Samples from each reaction were diluted 500-fold prior to the addition of luciferase since quinoline compounds are known to inhibit luciferase.[27] This dilution was sufficient to minimize inhibition of luciferase (Figure S4). Each replicate set included a positive control containing DMSO with no compound and a negative control containing carbonyl cyanide m-chlorophenyl hydrazone. Luminescence values were corrected for the background by subtracting the negative control and then normalized to the positive control within the same replicate. Dose–response curves were fit using eq 1, where activity is the relative ATP synthesis activity, [I] is the concentration of inhibitor in μg/mL, and n is the Hill coefficient. [drawing 1] 1

Data set [3] addresses T2, PA ATP synthase cIle65Ala mutant (Pseudomonas aeruginosa, UniProt Q9HT15, I65A).
T2 construct: expressed in transfected cells; host or cells: E. coli K-12 DK8 transformed with pASH20 carrying mutated atpE
The data set is described as follows: NADH-driven ATP synthesis inhibition, DK8/pASH20 cI65A membrane vesicles. It counts as biochemical. The conditions noted are these: for pIC50: ATP synthesis IC50, DK8/pASH20 cI65A vesicles, cI65A mutant, NADH-driven, luminescence assay; for Hill coefficient of dose response fit, DK8/pASH20 cI65A vesicles: inhibition of ATP synthesis activity. Here is the method:
(§5) P. aeruginosa (ATCC 9027) was streaked onto a 10% TSB agar plate and incubated at room temperature for 72 h. A single colony was resuspended in 100 μL of H2O, and 5 μL was used as the DNA template for PCR with Q5 polymerase (NEB) and […] each of forward and reverse primers. Primers were complementary to regions flanking the atp operon and included sequences for HindIII and NdeI restriction sites (see the SI for primer sequences). The resulting 6.9 kbp DNA fragment was digested with HindIII and NdeI and ligated into digested vector pBR322 (New England Biolabs). The resultant pASH20(-i) plasmid contains a partial atpI gene. To complete the atpI gene, the HindII-XhoI fragment of pASH20(-i) was replaced with a synthetic fragment with a complete atpI (Twist Bioscience) to yield pASH20. The sequence of the entire operon was verified by Sanger DNA sequencing through the ligation sites. Subunit c mutations were introduced by exchanging the XhoI-BamHI fragment containing atpE with a synthetic fragment containing mutated atpE (Twist Bioscience).
as §3, §4

Data set [4] addresses T3, PA ATP synthase cIle65Phe mutant (Pseudomonas aeruginosa, UniProt Q9HT15, I65F).
T3 construct: expressed in transfected cells; host or cells: E. coli K-12 DK8 transformed with pASH20 carrying mutated atpE
The data set is described as follows: NADH-driven ATP synthesis inhibition, DK8/pASH20 cI65F membrane vesicles. The data set is classed as biochemical. The conditions noted are these: for Hill coefficient of dose response fit, DK8/pASH20 cI65F vesicles: inhibition of ATP synthesis activity. Here is the method: as §5, §3, §4

In data set [5] the test system is EC electron transport chain. The data set is described as follows: Electron transport activity (NADH-driven H+ pumping, ACMA quenching), E. coli DK8/pASH20 vesicles. Particulars: for inhibition of EC ETC-driven H+ pumping, in words: 0-64 µg/mL, Figure S2; for Inhibition of the EC electron transport chain IC50: EC (DK8/pASH20) vesicles. The data set is classed as biochemical, Escherichia coli. Here is the method: Determination of electron transport activity. In an opaque black 96-well plate, inverted membrane
vesicles from PA or E. coli DK8 pASH20 were added to HMK buffer containing 0.3 µg/mL 9-amino-6-chloro-
2-methoxyacridine (ACMA) and 0-64 µg/mL test compound in DMSO. After measurement of baseline
ACMA fluorescence for 60 s, redox-driven H+ pumping was initiated by addition of NADH to 0.8 mM, and
fluorescence quenching was monitored for 120 s before addition of nigericin to 0.5 µg/mL. Relative
activity is reported as the minimum fluorescence value normalized to the maximum fluorescence value
following addition of nigericin. […]

A further data set in a line: Solubility in DMSO. It counts as physicochemical.

Turning to `CSc1nc2ccccc2cc1CNCc1ccc(CN(C)C)cc1` [Compound 4, N,N-Dimethyl-1-(4-((((2-(methylthio)quinolin-3-yl)methyl)amino)methyl)phenyl)methanamine], in data set [1], the minimal inhibitory concentration (MIC) was 128 to 256 µg/mL and the “antibacterial activity in words, BAA 2108” value is recorded as “able to inhibit”. The MIC in data set [2] is over 256 µg/mL. Further, on PA ATP synthase, the “Hill coefficient of dose response fit, PA vesicles” value is reported as 0.8 and the negative-log IC50 (pIC50) was 4.50. Moreover, in data set [3], the pIC50 is 4.23 and 4.22; the “Hill coefficient of dose response fit, DK8/pASH20 cI65A vesicles” value came to 1.2. Besides, in data set [4], the pIC50 was 4.89 and the “Hill coefficient of dose response fit, DK8/pASH20 cI65F vesicles” value was determined as 1.4. Also, the “fold reduction in IC50, cIle65Phe mutant relative to wild type” value in data set [4] (ATP synthesis inhibition, DK8/pASH20 vesicles) is on record as “greater than 6 fold”. In data set [5], the “inhibition of EC ETC-driven H+ pumping, in words” value is “mildly inhibited” and the “Inhibition of the EC electron transport chain IC50” value came out at 61 µg/mL. Moreover, the “solubility in dimethyl sulfoxide (DMSO)” value in “Solubility in DMSO” (at 128 μg/mL) is reported as “very soluble”. Moreover, the “solubility in dimethyl sulfoxide (DMSO)” value in the data set “Solubility in DMSO” (at 256 μg/mL) is “fully soluble”.
With `CN(C)Cc1ccc(CNCc2cc3ccccc3nc2SCc2ccccc2)cc1` [Compound 5, 1-(4-((((2-(Benzylthio)quinolin-3-yl)methyl)amino)methyl)phenyl)-N,N-dimethylmethanamine], in data set [1], the minimum inhibitory concentration (MIC) came to 64 µg/mL and the “antibacterial activity in words, BAA 2108” value is “more potent”. For the same molecule, the minimal inhibitory concentration (MIC) in data set [2] was over 128 µg/mL. Also, the “antibacterial activity in words, BAA 2110” value in data set [2] (summary of Table 1) is “inactive”. Moreover, at PA ATP synthase, the “Hill coefficient of dose response fit, PA vesicles” value came out at 0.8 and the pIC50 was 5.79. In data set [3], the pIC50 was 4.88 and the “Hill coefficient of dose response fit, DK8/pASH20 cI65A vesicles” value stood at 1.7. Also, in data set [4], the pIC50 was 5.09 and the “Hill coefficient of dose response fit, DK8/pASH20 cI65F vesicles” value is 1.8. Besides, in data set [5], the “inhibition of EC ETC-driven H+ pumping, in words” value is listed as “mildly inhibited” and the “Inhibition of the EC electron transport chain IC50” value was over 64 µg/mL. Also, in “Solubility in DMSO” (at 128 μg/mL), the “solubility in dimethyl sulfoxide (DMSO)” value was “very soluble”. Also, in “Solubility in DMSO” (at 256 μg/mL), the “solubility in dimethyl sulfoxide (DMSO)” value is “partially soluble”.

Usually MIC stands for the least concentration at which growth counts as inhibited. For orientation: pIC50 means −log10 of the IC50, conventionally taken in molar units. Low values mean a large IC50, high ones a small IC50.
